What was measured:
[1] = Tmax in CD-1 mouse at 20 mg/kg, po by LC-MS/MS method; type: ADME, organism-based; conditions: in vivo
[2] = AUC (0 to infinity) in Sprague-Dawley rat at 10 mg/kg, iv by LC-MS/MS method; type: ADME, organism-based; set-up: dose 10 mg/kg, time infinity, route intravenous; conditions: in vivo
[3] = Half life in Sprague-Dawley rat at 10 mg/kg, iv by LC-MS/MS method; type: ADME, organism-based; conditions: in vivo
[4] = AUC (0 to t) in Sprague-Dawley rat at 10 mg/kg, iv by LC-MS/MS method; type: ADME, organism-based; conditions: in vivo
[5] = Half life in CD-1 mouse at 5 mg/kg, iv by LC-MS/MS method; type: ADME, organism-based; conditions: in vivo
[6] = test system: Mus musculus; assay: Toxicity in nude mouse xenografted with human NCI-H1581 cells assessed as diarrhea at 20 mg/kg, po qd administered for 14 days; type: organism-based; conditions: in vivo, 336 h
[7] = AUC (0 to infinity) in Sprague-Dawley rat at 20 mg/kg, po by LC-MS/MS method; type: ADME, organism-based; set-up: dose 20 mg/kg, route oral, time infinity; conditions: in vivo
[8] = Half life in Sprague-Dawley rat at 20 mg/kg, po by LC-MS/MS method; type: ADME, organism-based; conditions: in vivo
[9] = Tmax in Sprague-Dawley rat at 10 mg/kg, iv by LC-MS/MS method; type: ADME, organism-based; conditions: in vivo
[10] = test system: Mus musculus; assay: Unbound Cmax in CD-1 mouse at 20 mg/kg, po by LC-MS/MS method; type: ADME, organism-based; conditions: in vivo
[11] = Cmax in CD-1 mouse at 20 mg/kg, po by LC-MS/MS method; type: ADME, organism-based; set-up: dose 20 mg/kg, route oral; conditions: in vivo
[12] = MRT in CD-1 mouse at 5 mg/kg, iv by LC-MS/MS method; type: ADME, organism-based; conditions: in vivo
[13] = MRT in Sprague-Dawley rat at 20 mg/kg, po by LC-MS/MS method; type: ADME, organism-based; conditions: in vivo
[14] = Cmax in Sprague-Dawley rat at 20 mg/kg, po by LC-MS/MS method; type: ADME, organism-based; set-up: dose 20 mg/kg, route oral; conditions: in vivo
[15] = molecular target: Discoidin domain-containing receptor 2 (Homo sapiens, UniProt Q16832); assay: Inhibition of recombinant DDR2 (unknown origin) using poly (Glu,Tyr) 4:1 as substrate after 60 mins by ELISA
[16] = MRT in Sprague-Dawley rat at 10 mg/kg, iv by LC-MS/MS method; type: ADME, organism-based; conditions: in vivo
[17] = MRT in CD-1 mouse at 20 mg/kg, po by LC-MS/MS method; type: ADME, organism-based; conditions: in vivo
[18] = Cmax in Sprague-Dawley rat at 10 mg/kg, iv by LC-MS/MS method; type: ADME, organism-based; set-up: dose 10 mg/kg, route intravenous; conditions: in vivo
[19] = AUC (0 to t) in CD-1 mouse at 20 mg/kg, po by LC-MS/MS method; type: ADME, organism-based; conditions: in vivo
[20] = Cmax in CD-1 mouse at 5 mg/kg, iv by LC-MS/MS method; type: ADME, organism-based; set-up: dose 5 mg/kg, route intravenous; conditions: in vivo
[21] = Inhibition of FGFR3 mutant in human UM-UC-14 cells assessed as inhibition of cell proliferation after 72 hrs by cell counting kit-8 assay; type: cell-based; conditions: UMUC14, 72 h
[22] = AUC (0 to infinity) in CD-1 mouse at 5 mg/kg, iv by LC-MS/MS method; type: ADME, organism-based; set-up: dose 5 mg/kg, time infinity, route intravenous; conditions: in vivo
[23] = test system: Mus musculus; assay: Toxicity in nude mouse xenografted with human NCI-H1581 cells assessed as emaciation at 20 mg/kg, po qd administered for 14 days; type: organism-based; conditions: in vivo, 336 h

Discoidin domain-containing receptor 2, sequence (Q16832 whole entry, the tested form may be a part): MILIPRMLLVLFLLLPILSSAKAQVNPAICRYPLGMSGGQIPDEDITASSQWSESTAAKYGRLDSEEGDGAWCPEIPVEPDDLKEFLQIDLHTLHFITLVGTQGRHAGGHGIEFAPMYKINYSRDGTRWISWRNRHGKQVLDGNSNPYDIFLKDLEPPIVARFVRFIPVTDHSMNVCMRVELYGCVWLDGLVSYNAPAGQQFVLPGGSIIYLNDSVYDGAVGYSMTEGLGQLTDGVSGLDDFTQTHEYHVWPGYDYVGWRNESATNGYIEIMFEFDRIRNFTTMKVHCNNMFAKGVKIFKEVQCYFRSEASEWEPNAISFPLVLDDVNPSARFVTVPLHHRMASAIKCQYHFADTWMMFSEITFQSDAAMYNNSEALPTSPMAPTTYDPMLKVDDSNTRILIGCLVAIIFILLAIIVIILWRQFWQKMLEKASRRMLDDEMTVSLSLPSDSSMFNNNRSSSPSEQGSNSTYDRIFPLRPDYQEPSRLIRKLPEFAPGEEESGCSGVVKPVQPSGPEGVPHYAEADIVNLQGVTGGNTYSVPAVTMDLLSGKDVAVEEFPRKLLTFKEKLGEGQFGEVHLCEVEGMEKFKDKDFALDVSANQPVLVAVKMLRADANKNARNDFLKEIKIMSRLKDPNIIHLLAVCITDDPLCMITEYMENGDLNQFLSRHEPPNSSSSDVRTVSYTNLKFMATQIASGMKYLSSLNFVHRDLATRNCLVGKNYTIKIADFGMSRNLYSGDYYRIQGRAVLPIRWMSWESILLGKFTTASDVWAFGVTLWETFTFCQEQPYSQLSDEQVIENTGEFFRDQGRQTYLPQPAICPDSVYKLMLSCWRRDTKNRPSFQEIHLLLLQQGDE

- Tmax [1]: 0.42 h
- AUC(0-inf) [2]: 13800 ng·h/mL
- half-life [3]: 2.39 h
- AUC(0-t) [4]: 13700 ng·h/mL
- half-life [5]: 2.5 h
- AUC(0-inf) [7]: 18700 ng·h/mL
- half-life [8]: 8 h
- Tmax [9]: 0.25 h
- fCmax [10]: 10.2 nM
- Cmax [11]: 961 ng/mL
- MRT [12]: 3.74 h
- MRT [13]: 6.72 h
- Cmax [14]: 2080 ng/mL
- IC50 [15]: 0.0008 µM
- MRT [16]: 3.41 h
- MRT [17]: 3.59 h
- Cmax [18]: 6540 ng/mL
- AUC(0-t) [19]: 2400 ng·h/mL
- Cmax [20]: 106 ng/mL
- AUC(0-inf) [22]: 290 ng·h/mL
Structure (SMILES): Cc1n[nH]c2ccc(-c3cc(N[C@@H](CO)c4ccccc4)cnc3-c3cc(F)ccc3O)cc12
- Activity [6]: Toxic
- IC50 [21]: 0.128 µM
- Activity [23]: Toxic
